Measurements published in US7956053B2, “Inhibitors of tyrosine kinases” (Novartis AG, priority 2002, dated 2011).

Key:
c-Abl = molecular target: T1, c-Abl (Homo sapiens, UniProt P00519); experiment: Test for activity against c-Abl protein tyrosine kinase (filter binding assay); type: biochemical
T1 construct: The His-tagged kinase domain of c-Abl is cloned and expressed in the baculovirus/Sf9 system; His; made in house; host or cells: baculovirus/Sf9
T1 sequence (P00519 242-493 limits assumed): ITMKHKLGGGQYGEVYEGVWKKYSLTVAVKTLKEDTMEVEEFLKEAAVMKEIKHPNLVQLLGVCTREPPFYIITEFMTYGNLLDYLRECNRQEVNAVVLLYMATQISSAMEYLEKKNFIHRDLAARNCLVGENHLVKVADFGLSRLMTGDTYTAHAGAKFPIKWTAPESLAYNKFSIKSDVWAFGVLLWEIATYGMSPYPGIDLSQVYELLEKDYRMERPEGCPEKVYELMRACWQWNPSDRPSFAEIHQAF
Protocol: Test for activity against c-Abl protein tyrosine kinase. The test is conducted as a filter binding assay as follows: The His-tagged kinase domain of c-Abl is cloned and expressed in the baculovirus/Sf9 system as described by Bhat et al., J Biol. Chem. 272, 16170-5 (1997). A protein of 37 kD (c-Abl kinase) is purified by a two-step procedure over a Cobalt metal chelate column followed by an anion exchange column with a yield of 1-2 mg/L of Sf9 cells. The purity of the c-Abl kinase is >90% as judged by SDS-PAGE after Coomassie blue staining. The assay contains: c-Abl kinase (50 ng), 20 mM Tris.HCl, pH 7.5, 10 mM MgCl2, 10 μM Na3VO4, 1 mM DTT and 0.06 μCi/assay [γ^33 P]-ATP (5 μM ATP) using 30 μg/mL poly-Ala,Glu,Lys,Tyr-6:2:5:1 (Poly-AEKY, Sigma P1152) in the presence of 1% DMSO, total volume of 30 μL. Reactions are terminated by adding 10 μL of 250 mM EDTA, and 30 μL of the reaction mixture is transferred onto Immobilon-PVDF membrane (Millipore, Bedford, Mass., USA) previously soaked for 5 min with methanol, rinsed with water, then soaked for 5 min with 0.5% H3PO4 and mounted on vacuum manifold with disconnected vacuum source. After spotting all samples, vacuum is connected and each well rinsed with 200 μL 0.5% H3PO4. Membranes are removed and washed on a shaker with 0.5% H3PO4 (4 times) and once with ethanol. Membranes are counted after drying at ambient temperature, mounting in Packard TopCount 96-well frame, and addition of 10 μL/well of Microscint™ (Packard).
(§1) Enzymatic (c-Abl, KDR, Flt3) in vitro inhibition data are presented as % inhibition at 10 μM. The measurements are made as described above in the general description.

KDR = KDR (Homo sapiens, UniProt P35968); experiment: Enzymatic KDR in vitro inhibition; type: biochemical
Protocol: Test for activity against VEGF-receptor tyrosine kinase. The test is conducted using Flt-1 VEGF-receptor tyrosine kinase. The detailed procedure is as follows: 30 μL kinase solution (10 ng of the kinase domain of Flt-1, Shibuya et al., Oncogene 5, 519-24 [1990]) in 20 mM Tris.HCl pH 7.5, 3 mM manganese dichloride (MnCl2), 3 mM magnesium chloride (MgCl2), 10 μM sodium vanadate, 0.25 mg/mL polyethylenglycol (PEG) 20000, 1 mM dithiothreitol and 3 μg/μL poly(Glu,Tyr) 4:1 (Sigma, Buchs, Switzerland), 8 μM [^33P]-ATP (0.2 μCi), 1% DMSO, and 0 to 100 μM of the compound to be tested are incubated together for 10 minutes at room temperature. The reaction is then terminated by the addition of 10 μL 0.25 M ethylenediaminetetraacetate (EDTA) pH 7. Using a multichannel dispenser (LAB SYSTEMS, USA), an aliquot of 20 μL is applied to a PVDF (=polyvinyl difluoride) Immobilon P membrane (Millipore, Bedford, USA), through a Gibco-BRL microtiter filter manifold and connected to a vacuum. Following complete elimination of the liquid, the membrane is washed 4 times successively in a bath containing 0.5% phosphoric acid (H3PO4) and once with ethanol, incubated for 10 minutes each time while shaking, then mounted in a Hewlett Packard TopCount Manifold and the radioactivity measured after the addition of 10 μL Microscint® (β-scintillation counter liquid). IC50-values are determined by linear regression analysis of the percentages for the inhibition of each compound in at least four concentrations (as a rule 0.01, 0.1, 1.0 and 10 μmol).
as §1

KDR, sequence (P35968 20-1356): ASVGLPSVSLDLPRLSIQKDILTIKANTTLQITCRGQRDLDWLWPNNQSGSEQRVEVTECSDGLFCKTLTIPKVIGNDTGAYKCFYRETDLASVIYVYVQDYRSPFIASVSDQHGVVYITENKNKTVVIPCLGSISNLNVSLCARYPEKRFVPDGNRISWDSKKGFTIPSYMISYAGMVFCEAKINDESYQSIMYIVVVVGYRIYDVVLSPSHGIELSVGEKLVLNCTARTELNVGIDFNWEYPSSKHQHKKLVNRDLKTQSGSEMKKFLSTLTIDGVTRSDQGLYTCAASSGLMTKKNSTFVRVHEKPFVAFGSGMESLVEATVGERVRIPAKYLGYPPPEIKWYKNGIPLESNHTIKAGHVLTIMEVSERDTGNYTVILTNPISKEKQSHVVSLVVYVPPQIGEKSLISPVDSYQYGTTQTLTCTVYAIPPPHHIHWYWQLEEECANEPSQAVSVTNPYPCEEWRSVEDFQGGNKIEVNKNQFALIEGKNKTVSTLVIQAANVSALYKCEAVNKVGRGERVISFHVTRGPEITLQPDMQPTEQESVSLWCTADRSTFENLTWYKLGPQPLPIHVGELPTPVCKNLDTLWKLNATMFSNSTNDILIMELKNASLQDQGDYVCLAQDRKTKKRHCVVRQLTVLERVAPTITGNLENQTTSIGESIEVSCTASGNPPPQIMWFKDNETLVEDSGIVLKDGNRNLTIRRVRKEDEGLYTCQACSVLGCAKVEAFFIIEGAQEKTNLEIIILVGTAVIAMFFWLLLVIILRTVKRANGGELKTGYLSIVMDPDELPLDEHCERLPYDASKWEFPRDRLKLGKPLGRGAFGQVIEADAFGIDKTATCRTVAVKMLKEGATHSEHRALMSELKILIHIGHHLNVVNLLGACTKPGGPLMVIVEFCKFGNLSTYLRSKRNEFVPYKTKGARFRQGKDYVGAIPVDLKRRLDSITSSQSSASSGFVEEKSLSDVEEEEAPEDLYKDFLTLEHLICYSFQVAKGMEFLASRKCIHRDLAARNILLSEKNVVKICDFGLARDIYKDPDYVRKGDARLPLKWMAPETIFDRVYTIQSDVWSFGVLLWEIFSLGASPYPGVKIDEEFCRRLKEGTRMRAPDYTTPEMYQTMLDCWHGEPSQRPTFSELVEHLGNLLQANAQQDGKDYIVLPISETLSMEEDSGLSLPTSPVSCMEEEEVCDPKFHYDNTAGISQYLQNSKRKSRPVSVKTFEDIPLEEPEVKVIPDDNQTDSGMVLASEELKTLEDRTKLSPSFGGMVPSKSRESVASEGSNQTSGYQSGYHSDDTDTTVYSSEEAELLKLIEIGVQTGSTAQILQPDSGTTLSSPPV

| Compound | Abl %@10 μM (c-Abl; % inhibition at 10 μM) [%] | KDR %@10 μM (KDR; % inhibition at 10 μM) [%] | inhibition at 10 µM (c-Abl) [%] | inhibition at 10 µM (KDR) [%] |
| --- | --- | --- | --- | --- |
| 4-Methyl-N-[(5-methylpyrazinyl)methyl]-3-[[4-(3-pyridinyl)-2-pyrimidinyl]amino]benzamide [Example 55] | 43 | 54 |  |  |
| Cc1ccc(C(=O)NCc2ccco2)cc1Nc1nccc(-c2cccnc2)n1 [Example 1, N-(2-Furanylmethyl)-4-methyl-3-[[4-(3-pyridinyl)-2-Pyrimidinyl]amino]benzamide] |  |  | 51 | 57 |
| Cc1ccc(C(=O)Nc2ccc(CN3CCN(C)CC3)cc2)cc1Nc1nccc(-c2cccnc2)n1 [Example 2, N-[4-Methyl-3-[[4-(3-pyridinyl)-2-pyrimidinyl]amino]benzoyl]-4-[(4-methyl-1-piperazinyl)methyl]benzeneamine] |  |  | 97 | 73 |
| Cc1ccc(C(=O)N2CCN(c3ccccn3)CC2)cc1Nc1nccc(-c2cccnc2)n1 [Example 3, 1-[4-Methyl-3-[[4-(3-pyridinyl)-2-pyrimidinyl]amino]benzoyl]-4-(2-pyridinyl)piperazine] |  |  | 66 | 71 |
| Cc1ccc(C(=O)NCCc2ccccn2)cc1Nc1nccc(-c2cccnc2)n1 [Example 4, 4-Methyl-N-[2-(2-pyridinyl)ethyl]-3-[[4-(3-pyridinyl)-2-pyrimidinyl]amino]-benzamide] |  |  | 77 | 46 |
| Cc1ccc(C(=O)NC2CCN(Cc3ccccc3)CC2)cc1Nc1nccc(-c2cccnc2)n1 [Example 5, 4-Methyl-N-[1-(phenylmethyl)-4-piperidinyl]-3-[[4-(3-pyridinyl)-2-pyrimidinyl]amino]benzamide] |  |  | 71 | 60 |
| Cc1ccc(C(=O)NCc2ccncc2)cc1Nc1nccc(-c2cccnc2)n1 [Example 6, 4-Methyl-N-(4-pyridinylmethyl)-3-[[4-(3-pyridinyl)-2-pyrimidinyl]amino]benzamide] |  |  | 51 | 56 |
| Cc1ccc(C(=O)NCCc2cccn2C)cc1Nc1nccc(-c2cccnc2)n1 [Example 7, 4-Methyl-N-[2-(1-methyl-1H-pyrrol-2-yl)ethyl]-3-[[4-(3-pyridinyl)-2-pyrimidinyl]amino]benzamide] |  |  | 72 | 45 |
| COc1ccc(CNC(=O)c2ccc(C)c(Nc3nccc(-c4cccnc4)n3)c2)cc1 [Example 8, N-[(4-Methoxyphenyl)methyl]-4-methyl-3-[[4-(3-pyridinyl)-2-pyrimidinyl]amino]benzamide] |  |  | 70 | 81 |
| Cc1ccc(C(=O)NCC(C)C)cc1Nc1nccc(-c2cccnc2)n1 [Example 9, 4-Methyl-N-(2-methylpropyl)-3-[[4-(3-pyridinyl)-2-pyrimidinyl]amino]benzamide] |  |  | 44 | 39 |
| Cc1ccc(C(=O)NCCN2CCOCC2)cc1Nc1nccc(-c2cccnc2)n1 [Example 10, 4-Methyl-N-(2-morpholinoethyl)-3-[[4-(3-pyridinyl)-2-pyrimidinyl]amino]-benzamide] |  |  | 57 | 48 |
| Cc1ccc(C(=O)NCC2CCCO2)cc1Nc1nccc(-c2cccnc2)n1 (stereo not shown) [Example 11, 4-Methyl-3-[[4-(3-pyridinyl)-2-pyrimidinyl]amino]-N-[(tetrahydro-2-furanyl)methyl]benzamide] |  |  | 53 | 41 |
| Cc1ccc(C(=O)NCCc2cnc(O)nc2O)cc1Nc1nccc(-c2cccnc2)n1 [Example 12, N-[2-(2,4-Dihydroxy-5-pyrimidinyl)ethyl]-4-methyl-3-[[4-(3-pyridinyl)-2-pyrimidinyl]amino]benzamide] |  |  | 22 | 33 |

Now from value to compound:

| Abl %@10 μM (c-Abl; % inhibition at 10 μM) [%] | KDR %@10 μM (KDR; % inhibition at 10 μM) [%] | inhibition at 10 µM (c-Abl) [%] | inhibition at 10 µM (KDR) [%] | Compound |
| --- | --- | --- | --- | --- |
|  |  | 78 | 48 | Cc1ccc(C(=O)NC2CCCCC2)cc1Nc1nccc(-c2cccnc2)n1 [Example 13, N-Cyclohexyl-4-methyl-3-[[4-(3-pyridinyl)-2-pyrimidinyl]amino]benzamide] |
|  |  | 49 | 54 | Cc1ccc(C(=O)N[C@H]2CCCCNC2=O)cc1Nc1nccc(-c2cccnc2)n1 [Example 14, N-[(3S)-Hexahydro-2-oxo-1H-azepin-3-yl]-4-methyl-3-[[4-(3-pyridinyl)-2-pyrimidinyl]amino]benzamide] |
|  |  | 60 | 23 | COc1ccc(CCNC(=O)c2ccc(C)c(Nc3nccc(-c4cccnc4)n3)c2)cc1OC [Example 15, N-[2-(3,4-Dimethoxyphenyl)ethyl]-4-methyl-3-[[4-(3-pyridinyl)-2-pyrimidinyl]amino]benzamide] |
|  |  | 42 | 10 | CCOC(=O)Cc1csc(NC(=O)c2ccc(C)c(Nc3nccc(-c4cccnc4)n3)c2)n1 [Example 16, 2-[[4-Methyl-3-[[4-(3-pyridinyl)-2-pyrimidinyl]amino]benzoyl]amino]-4-thiazoleacetic acid ethyl ester] |
|  |  | 54 | 62 | Cc1ccc(C(=O)NCCCn2ccnc2)cc1Nc1nccc(-c2cccnc2)n1 [Example 17, N-[3-(1H-Imidazol-1-yl)propyl]-4-methyl-3-[[4-(3-pyridinyl)-2pyrimidinyl]amino]benzamide] |
|  |  | 56 | 62 | Cc1ccc(C(=O)NCC2CC2)cc1Nc1nccc(-c2cccnc2)n1 [Example 18, N-(Cyclopropylmethyl)-4-methyl-3-[[4-(3-pyridinyl)-2-pyrimidinyl]amino]-benzamide] |
|  |  | 41 | 33 | COCCNC(=O)c1ccc(C)c(Nc2nccc(-c3cccnc3)n2)c1 [Example 19, N-(2-methoxyethyl)-4-methyl-3-[[4-(3-pyridinyl)-2-pyrimidinyl]amino]benzamide] |
|  |  | 56 | 22 | Cc1ccc(C(=O)NCCCN2CCCC2=O)cc1Nc1nccc(-c2cccnc2)n1 [Example 20, 4-Methyl-N-[3-(2-oxo-1-pyrrolidinyl)propyl]-3-[[4-(3-pyridinyl)-2-pyrimidinyl]amino]benzamide] |
|  |  | 30 | 93 | Cc1ccc(C(=O)N(C)Cc2ccccc2)cc1Nc1nccc(-c2cccnc2)n1 [Example 21, N,4-Dimethyl-N-(phenylmethyl)-3-[[4-(3-pyridinyl)-2-pyrimidinyl]amino]-benzamide] |
|  |  | 59 | 7 | CC(=O)Nc1ccc(NC(=O)c2ccc(C)c(Nc3nccc(-c4cccnc4)n3)c2)cc1 [Example 22, N-[4-(Acetylamino)phenyl]-4-methyl-3-[[4-(3-pyridinyl)-2-pyrimidinyl]amino]benzamide] |
|  |  | 90 | 67 | COc1ccc(NC(=O)c2ccc(C)c(Nc3nccc(-c4cccnc4)n3)c2)c(C)c1 [Example 23, N-(4-Methoxy-2-methylphenyl)-4-methyl-3-[[4-(3-pyridinyl)-2-pyrimidinyl]amino]benzamide] |
|  |  | 78 |  | Cc1ccc(C(=O)NCc2ccc(S(N)(=O)=O)cc2)cc1Nc1nccc(-c2cccnc2)n1 [Example 29, N-[[4-(Aminosulfonyl)phenyl]methyl]-4-methyl-3-[[4-(3-pyridinyl)-2-pyrimidinyl]amino]benzamide] |
